Here are results for one molecule from patent US20220193209A1, “COMPOSITIONS AND METHODS FOR REACTIVATING LATENT IMMUNODEFICIENCY VIRUS AND/OR TREATING IMMUNODEFICIENCY VIRUS INFECTION” (The J. David Gladstone institutes, a testamentary trust …, priority 2019, published 2022).

The data set deals with J-Lat cells. Nature of the data set: Cell viability of J-Lat cells by flow cytometry. Type of data set: cell-based. The procedure: FIG. 3, Panel A, depicts results of treatment of a J-Lat cell line 5A8 with increasing concentrations (1-10000 nM) of AS1842856 for 24, 48 and 72 h. HIV-GFP mRNA reactivation was assessed by RT-qPCR and normalized to RPL13A mRNA. Data represent average SD of three independent experiments. p-value relative to the control at each time point. FIG. 3, Panel B, depicts cell viability assessed by flow cytometry at 72 h of the same experiment as in A. Cell viability was measured by gating on both the live population at the forward scatter (FSC) and side scatter (SSC) plot and then the viable cells after staining with the viability dye. FIG. 3, Panel C, depicts results of treatment of J-Lat cell lines A2 and A72 with increasing concentrations of AS1842856 for 24, 48 and 72 h. HIV-GFP reactivation (bars) and cell viability (dots) were analyzed by FACS. HIV-GFP reactivation is reported as a percentage of GFP-expressing cells (% GFP+ cells). Data represent average f SD of at least three independent experiments. FIG. 3, Panel D, depicts the same experiments as in FIG. 3, Panel C, but performed in different J-Lat cell lines 5A8, 6.3, 11.1 and 15.4. Data represent average f SD of at least three independent experiments. 10 ng/mL TNFα was used as control. FIG. 3 Panel E depicts results of treatment of J-Lat cell lines 5A8, 6.3, 11.1 and 15.4 for 72 h with increasing concentrations of both AS1842856 (Y-axis) and TNFα (X-axis) alone or in combination and analyzed by FACS. Calculation of synergy for drug combinations using the Bliss independence model applied to the HIV-GFP reactivation measured as a percentage of GFP-expressing cells (% GFP+ cells).
FIG. 10, Panels A-F depict results of a J-Lat cell line 5A8 treated with different concentrations of inhibitors. FIG. 10, Panel A, depicts results for a J-Lat cell line A58 that was treated with increasing concentrations of A-92 (GCN2 inhibitor) in combination with 1000 nM AS1842856 (72 h) or 10 ng/mL TNFα (24 h). HIV-GFP reactivation was analyzed by FACS and relativized to the control condition. Histogram plots of percent live cells for each drug treatment are shown. FIG. 10, Panel B, depicts the same experiment as in FIG. 10, Panel A, but cells were treated with increasing concentrations of PKR inhibitor (PKRi). Histogram plots representing viability are also shown. Data are represented by mean±SD of three different […]. […] FIG. 10, Panel D, depicts a J-Lat cell line A58 that was treated with increasing concentrations of Ionomycin (0.01, 0.1, 0.5, 1 μM) for 24, 48 and 72 hr. HIV-GFP reactivation and cell viability were analyzed by FACS. FIG. 10, Panel E, depicts a J-Lat cell line 5A8 that was treated for 72 h with increasing concentrations of both Fenretinide (Y-axis) and Ionomycin (X-axis) alone or in combination and analyzed by FACS. HIV-GFP reactivation is reported as a percentage of GFP-expressing cells (% GFP+ cells). FIG. 10, Panel F, depicts a J-Lat cell line 5A8 that was also treated for 72 h with increasing concentrations of both Thapsigargin (Y-axis) and Cyclosporin A (X-axis) alone or in combination and analyzed by FACS. HIV-GFP reactivation is again reported as a percentage of GFP-expressing cells (% GFP+ cells).

As for `CCn1cc(C(=O)O)c(=O)c2c(N)c(F)c(NC3CCCCC3)cc21` [AS1842856, 5-amino-7-(cyclohexylamino)-1-ethyl-6-fluoro-4-oxo-1,4-dihydro-quinoline-3-carboxylic acid], the cell viability entry was “No major effects” (J-Lat 5A8, 72 h); “no effect” (J-Lat A2 and A72). Where the note is “four J-Lat clonal cell lines”, the viability entry is “unaffected”.
